Source: ChEMBL document CHEMBL6153155, “Novel Cyclohexyl Amido Acid Antagonists of Lysophosphatidic Acid Type 1 Receptor for the Treatment of Pulmonary Fibrosis” (ACS Med Chem Lett, 2025)
In brackets after ≈: the same amount, converted by molar mass.

tested on: not listed separately; test: Unbound AUClast in female C57BL/6J mouse lung at 30 mg/kg, po measured after 24 hrs by UPLC-MS/MS analysis; type: ADME, organism-based; conditions: in vivo; call rule not given here

| fAUClast [h/ng/mL] | Structure (SMILES) |
| --- | --- |
| 3846 | Cc1nc(-c2onc(C)c2Nc2cncc(OC(C)C)n2)ccc1NC(=O)[C@H]1CCCC[C@@H]1C(=O)O |
| 3967 | Cc1nc(-c2onc(C)c2NC(=O)O[C@H](C)c2ccccc2)ccc1NC(=O)[C@H]1CCCC[C@@H]1C(=O)O |

tested on: not listed separately; test: Total AUClast in female C57BL/6J mouse lung at 30 mg/kg, po measured after 24 hrs by UPLC-MS/MS analysis; type: ADME, organism-based; conditions: in vivo

| AUClast [h/ng/mL] | Structure (SMILES) |
| --- | --- |
| 24800 | Cc1nc(-c2onc(C)c2Nc2cncc(OC(C)C)n2)ccc1NC(=O)[C@H]1CCCC[C@@H]1C(=O)O |
| 57300 | Cc1nc(-c2onc(C)c2NC(=O)O[C@H](C)c2ccccc2)ccc1NC(=O)[C@H]1CCCC[C@@H]1C(=O)O |

tested on: not listed separately; test: Metabolic stability in human liver microsomes assessed as intrinsic clearance measured per mg of protein at 0.5 uM measured upto 45 mins in presence of NADPH regenerating system by HPLC-MS/MS analysis; type: ADME, Microsome; conditions: read-out: CLH

| microsomal CLint at 0.5 µM [µL/min/mg] | Structure (SMILES) |
| --- | --- |
| < 2 | Cc1nc(-c2onc(C)c2Nc2cncc(OC(C)C)n2)ccc1NC(=O)[C@H]1CCCC[C@@H]1C(=O)O |
| 2.3 | Cc1nc(-c2onc(C)c2NC(=O)O[C@H](C)c2ccccc2)ccc1NC(=O)[C@H]1CCCC[C@@H]1C(=O)O |

tested on: not listed separately; test: Aqueous solubility of the compound at pH 7.4; type: physicochemical; conditions: buffer

| solubility [µM] | Structure (SMILES) |
| --- | --- |
| 644 (≈ 318 µg/mL) | Cc1nc(-c2onc(C)c2Nc2cncc(OC(C)C)n2)ccc1NC(=O)[C@H]1CCCC[C@@H]1C(=O)O |
| 641 (≈ 325 µg/mL) | Cc1nc(-c2onc(C)c2NC(=O)O[C@H](C)c2ccccc2)ccc1NC(=O)[C@H]1CCCC[C@@H]1C(=O)O |

tested on: Mus musculus; test: Inhibition of LPA-stimulated histamine release in male CD1 mouse plasma assessed as effective dose administered as po dose pretreated for 30 mins followed by LPA addition measured after 2 mins by enzyme immunoassay; type: functional; conditions: 32 min

| Structure (SMILES) | ED50 [mg/kg] |
| --- | --- |
| Cc1nc(-c2onc(C)c2NC(=O)O[C@H](C)c2ccccc2)ccc1NC(=O)[C@H]1CCCC[C@@H]1C(=O)O | 0.1 |

biological target: Lysophosphatidic acid receptor 1 (Mus musculus, UniProt P61793); test: Antagonist activity at mouse LPA1 transfected in human HeLa cells incubated for 30 mins by FLIPR-based calcium mobilization assay; type: cell-based; conditions: not given
Sequence (P61793 whole entry): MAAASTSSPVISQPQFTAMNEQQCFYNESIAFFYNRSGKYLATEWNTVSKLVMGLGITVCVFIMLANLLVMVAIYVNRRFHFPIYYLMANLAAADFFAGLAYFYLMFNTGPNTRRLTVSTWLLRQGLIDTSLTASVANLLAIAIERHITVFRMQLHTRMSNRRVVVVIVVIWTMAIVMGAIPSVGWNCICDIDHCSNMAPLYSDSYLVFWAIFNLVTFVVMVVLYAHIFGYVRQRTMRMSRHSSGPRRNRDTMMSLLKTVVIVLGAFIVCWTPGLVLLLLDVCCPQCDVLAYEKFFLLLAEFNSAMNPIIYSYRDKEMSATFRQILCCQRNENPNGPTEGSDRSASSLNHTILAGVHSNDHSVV

| IC50 [nM] | Structure (SMILES) |
| --- | --- |
| 39.8 | Cc1nc(-c2onc(C)c2Nc2cncc(OC(C)C)n2)ccc1NC(=O)[C@H]1CCCC[C@@H]1C(=O)O |
| 12.6 | Cc1nc(-c2onc(C)c2NC(=O)O[C@H](C)c2ccccc2)ccc1NC(=O)[C@H]1CCCC[C@@H]1C(=O)O |

biological target: BSEP (Homo sapiens, UniProt O95342); test: Inhibition of BSEP in cryopreserved sandwich-cultured human hepatocytes by measuring reduction in TCA biliary clearance using taurocholic acid as substrate at 50 uM relative to control; type: cell-based, Hepatocyte; conditions: cryopreserved sandwich-cultured hepatocytes, probe taurocholic acid
Sequence (O95342 whole entry): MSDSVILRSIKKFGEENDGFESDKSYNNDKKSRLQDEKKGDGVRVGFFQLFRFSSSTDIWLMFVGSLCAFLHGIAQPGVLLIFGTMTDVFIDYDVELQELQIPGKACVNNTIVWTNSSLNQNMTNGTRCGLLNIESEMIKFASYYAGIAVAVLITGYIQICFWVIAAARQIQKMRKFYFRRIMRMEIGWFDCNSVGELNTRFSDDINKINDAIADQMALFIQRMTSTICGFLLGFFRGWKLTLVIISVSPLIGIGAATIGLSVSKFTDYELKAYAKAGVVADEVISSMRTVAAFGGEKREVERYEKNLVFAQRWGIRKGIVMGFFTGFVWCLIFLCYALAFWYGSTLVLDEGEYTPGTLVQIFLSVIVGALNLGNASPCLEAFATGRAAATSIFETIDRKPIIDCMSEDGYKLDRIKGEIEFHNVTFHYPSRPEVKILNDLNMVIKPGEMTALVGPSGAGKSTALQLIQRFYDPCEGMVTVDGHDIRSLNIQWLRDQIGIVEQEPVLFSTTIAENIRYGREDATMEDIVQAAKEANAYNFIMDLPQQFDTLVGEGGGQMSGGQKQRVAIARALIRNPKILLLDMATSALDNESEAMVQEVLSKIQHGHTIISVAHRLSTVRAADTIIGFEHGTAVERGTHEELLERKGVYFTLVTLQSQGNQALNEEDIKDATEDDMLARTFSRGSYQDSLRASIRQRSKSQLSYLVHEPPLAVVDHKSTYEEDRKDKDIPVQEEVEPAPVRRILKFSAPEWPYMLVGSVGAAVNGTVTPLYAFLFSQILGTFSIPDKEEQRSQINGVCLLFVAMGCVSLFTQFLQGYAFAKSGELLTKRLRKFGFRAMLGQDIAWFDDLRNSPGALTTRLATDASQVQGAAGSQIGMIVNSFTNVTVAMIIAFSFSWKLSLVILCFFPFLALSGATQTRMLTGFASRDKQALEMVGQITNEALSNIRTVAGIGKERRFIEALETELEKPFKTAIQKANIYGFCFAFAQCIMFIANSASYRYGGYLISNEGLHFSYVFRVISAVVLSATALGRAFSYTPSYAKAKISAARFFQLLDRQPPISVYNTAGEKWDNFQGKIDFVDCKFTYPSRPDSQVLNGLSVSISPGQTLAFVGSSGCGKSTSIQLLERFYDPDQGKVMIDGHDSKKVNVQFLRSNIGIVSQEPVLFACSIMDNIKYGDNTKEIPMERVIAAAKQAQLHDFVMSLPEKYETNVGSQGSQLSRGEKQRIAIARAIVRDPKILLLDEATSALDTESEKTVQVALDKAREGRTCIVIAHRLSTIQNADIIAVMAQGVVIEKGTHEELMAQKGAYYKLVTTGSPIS

| Structure (SMILES) | inhibition at 50 µM [%] |
| --- | --- |
| Cc1nc(-c2onc(C)c2Nc2cncc(OC(C)C)n2)ccc1NC(=O)[C@H]1CCCC[C@@H]1C(=O)O | 18 |
| Cc1nc(-c2onc(C)c2NC(=O)O[C@H](C)c2ccccc2)ccc1NC(=O)[C@H]1CCCC[C@@H]1C(=O)O | 28 |

tested on: not listed separately; test: Unbound Cmax in female C57BL/6J mouse plasma at 30 mg/kg, po measured after 24 hrs by UPLC-MS/MS analysis; type: ADME, organism-based; conditions: in vivo

| fCmax [ng/mL] | Structure (SMILES) |
| --- | --- |
| 1726 | Cc1nc(-c2onc(C)c2Nc2cncc(OC(C)C)n2)ccc1NC(=O)[C@H]1CCCC[C@@H]1C(=O)O |
| 2189 | Cc1nc(-c2onc(C)c2NC(=O)O[C@H](C)c2ccccc2)ccc1NC(=O)[C@H]1CCCC[C@@H]1C(=O)O |

tested on: not listed separately; test: Clearance in female C57BL/6J mouse at 2 mg/kg, iv measured after 24 hrs by UPLC-MS/MS analysis; type: ADME, organism-based; conditions: in vivo

| clearance [mL/min/kg] | Structure (SMILES) |
| --- | --- |
| 2.05 | Cc1nc(-c2onc(C)c2Nc2cncc(OC(C)C)n2)ccc1NC(=O)[C@H]1CCCC[C@@H]1C(=O)O |
| 1.75 | Cc1nc(-c2onc(C)c2NC(=O)O[C@H](C)c2ccccc2)ccc1NC(=O)[C@H]1CCCC[C@@H]1C(=O)O |

tested on: not listed separately; test: Lipophilicity, logD of compound at pH 7.4 by chromatographic hydrophobicity index method; type: physicochemical; conditions: buffer

| chromatographic logD | Structure (SMILES) |
| --- | --- |
| 0.86 | Cc1nc(-c2onc(C)c2Nc2cncc(OC(C)C)n2)ccc1NC(=O)[C@H]1CCCC[C@@H]1C(=O)O |
| 1.27 | Cc1nc(-c2onc(C)c2NC(=O)O[C@H](C)c2ccccc2)ccc1NC(=O)[C@H]1CCCC[C@@H]1C(=O)O |

tested on: not listed separately; test: Oral bioavailability in female C57BL/6J mouse at 2 mg/kg, iv measured after 24 hrs by UPLC-MS/MS analysis; type: ADME, organism-based; conditions: in vivo

| bioavailability [%] | Structure (SMILES) |
| --- | --- |
| 45 | Cc1nc(-c2onc(C)c2Nc2cncc(OC(C)C)n2)ccc1NC(=O)[C@H]1CCCC[C@@H]1C(=O)O |
| 100 | Cc1nc(-c2onc(C)c2NC(=O)O[C@H](C)c2ccccc2)ccc1NC(=O)[C@H]1CCCC[C@@H]1C(=O)O |

tested on: not listed separately; test: Total Cmax in female C57BL/6J mouse plasma at 30 mg/kg, po measured after 24 hrs by UPLC-MS/MS analysis; type: ADME, organism-based; conditions: not given

| Cmax [ng/mL] | Structure (SMILES) |
| --- | --- |
| 60600 | Cc1nc(-c2onc(C)c2Nc2cncc(OC(C)C)n2)ccc1NC(=O)[C@H]1CCCC[C@@H]1C(=O)O |
| 89700 | Cc1nc(-c2onc(C)c2NC(=O)O[C@H](C)c2ccccc2)ccc1NC(=O)[C@H]1CCCC[C@@H]1C(=O)O |

tested on: not listed separately; test: Drug uptake in mouse lung at 30 mg/kg, po measured upto 24 hrs; type: ADME, organism-based; conditions: in vivo

| Drug uptake | Structure (SMILES) |
| --- | --- |
| Active | Cc1nc(-c2onc(C)c2NC(=O)O[C@H](C)c2ccccc2)ccc1NC(=O)[C@H]1CCCC[C@@H]1C(=O)O |

tested on: not listed separately; test: Tlast in female C57BL/6J mouse plasma at 30 mg/kg, po measured after 24 hrs by UPLC-MS/MS analysis; type: ADME, organism-based; conditions: in vivo

| Tlast [h] | Structure (SMILES) |
| --- | --- |
| 8 | Cc1nc(-c2onc(C)c2Nc2cncc(OC(C)C)n2)ccc1NC(=O)[C@H]1CCCC[C@@H]1C(=O)O |
| 24 | Cc1nc(-c2onc(C)c2NC(=O)O[C@H](C)c2ccccc2)ccc1NC(=O)[C@H]1CCCC[C@@H]1C(=O)O |

tested on: not listed separately; test: Unbound AUClast in female C57BL/6J mouse plasma at 30 mg/kg, po measured after 24 hrs by UPLC-MS/MS analysis; type: ADME, organism-based; conditions: in vivo

| fAUClast [h/ng/mL] | Structure (SMILES) |
| --- | --- |
| 3105 | Cc1nc(-c2onc(C)c2Nc2cncc(OC(C)C)n2)ccc1NC(=O)[C@H]1CCCC[C@@H]1C(=O)O |
| 7686 | Cc1nc(-c2onc(C)c2NC(=O)O[C@H](C)c2ccccc2)ccc1NC(=O)[C@H]1CCCC[C@@H]1C(=O)O |

tested on: not listed separately; test: Tlast in female C57BL/6J mouse lung at 30 mg/kg, po measured after 24 hrs by UPLC-MS/MS analysis; type: ADME, organism-based; conditions: in vivo

| Tlast [h] | Structure (SMILES) |
| --- | --- |
| 8 | Cc1nc(-c2onc(C)c2Nc2cncc(OC(C)C)n2)ccc1NC(=O)[C@H]1CCCC[C@@H]1C(=O)O |
| 8 | Cc1nc(-c2onc(C)c2NC(=O)O[C@H](C)c2ccccc2)ccc1NC(=O)[C@H]1CCCC[C@@H]1C(=O)O |

tested on: not listed separately; test: Total Cmax in female C57BL/6J mouse lung at 30 mg/kg, po measured after 24 hrs by UPLC-MS/MS analysis; type: ADME, organism-based; conditions: not given

| Cmax [ng/mL] | Structure (SMILES) |
| --- | --- |
| 10300 | Cc1nc(-c2onc(C)c2Nc2cncc(OC(C)C)n2)ccc1NC(=O)[C@H]1CCCC[C@@H]1C(=O)O |
| 17700 | Cc1nc(-c2onc(C)c2NC(=O)O[C@H](C)c2ccccc2)ccc1NC(=O)[C@H]1CCCC[C@@H]1C(=O)O |

tested on: not listed separately; test: Half life in female C57BL/6J mouse at 2 mg/kg, iv measured after 24 hrs by UPLC-MS/MS analysis; type: ADME, organism-based; conditions: in vivo

| half-life [h] | Structure (SMILES) |
| --- | --- |
| 1.96 | Cc1nc(-c2onc(C)c2Nc2cncc(OC(C)C)n2)ccc1NC(=O)[C@H]1CCCC[C@@H]1C(=O)O |
| 1.81 | Cc1nc(-c2onc(C)c2NC(=O)O[C@H](C)c2ccccc2)ccc1NC(=O)[C@H]1CCCC[C@@H]1C(=O)O |

tested on: not listed separately; test: Metabolic stability in female C57BL/6J mouse liver microsomes assessed as intrinsic clearance measured per mg of protein at 0.5 uM measured upto 45 mins in presence of NADPH regenerating system by HPLC-MS/MS analysis; type: ADME, Microsome; conditions: read-out: CLH

| microsomal CLint at 0.5 µM [µL/min/mg] | Structure (SMILES) |
| --- | --- |
| 11 | Cc1nc(-c2onc(C)c2Nc2cncc(OC(C)C)n2)ccc1NC(=O)[C@H]1CCCC[C@@H]1C(=O)O |
| 3.5 | Cc1nc(-c2onc(C)c2NC(=O)O[C@H](C)c2ccccc2)ccc1NC(=O)[C@H]1CCCC[C@@H]1C(=O)O |

biological target: Bile salt export pump (Homo sapiens, UniProt O95342); test: Inhibition of BSEP in cryopreserved sandwich-cultured human hepatocytes by measuring reduction in TCA biliary clearance using taurocholic acid as substrate; type: cell-based, Hepatocyte; conditions: not given
Sequence (O95342 whole entry): as above

| Structure (SMILES) | IC50 [nM] |
| --- | --- |
| Cc1nc(-c2onc(C)c2Nc2cncc(OC(C)C)n2)ccc1NC(=O)[C@H]1CCCC[C@@H]1C(=O)O | > 100000 |
| Cc1nc(-c2onc(C)c2NC(=O)O[C@H](C)c2ccccc2)ccc1NC(=O)[C@H]1CCCC[C@@H]1C(=O)O | 100000 |

tested on: not listed separately; test: Unbound Cmax in female C57BL/6J mouse lung at 30 mg/kg, po measured after 24 hrs by UPLC-MS/MS analysis; type: ADME, organism-based; conditions: in vivo

| fCmax [ng/mL] | Structure (SMILES) |
| --- | --- |
| 1597 | Cc1nc(-c2onc(C)c2Nc2cncc(OC(C)C)n2)ccc1NC(=O)[C@H]1CCCC[C@@H]1C(=O)O |
| 1225 | Cc1nc(-c2onc(C)c2NC(=O)O[C@H](C)c2ccccc2)ccc1NC(=O)[C@H]1CCCC[C@@H]1C(=O)O |

tested on: not listed separately; test: Volume of distribution at steady state in female C57BL/6J mouse at 2 mg/kg, iv measured after 24 hrs by UPLC-MS/MS analysis; type: ADME, organism-based; conditions: in vivo, read-out: Vdss

| Vd [L/kg] | Structure (SMILES) |
| --- | --- |
| 0.16 | Cc1nc(-c2onc(C)c2Nc2cncc(OC(C)C)n2)ccc1NC(=O)[C@H]1CCCC[C@@H]1C(=O)O |
| 0.2 | Cc1nc(-c2onc(C)c2NC(=O)O[C@H](C)c2ccccc2)ccc1NC(=O)[C@H]1CCCC[C@@H]1C(=O)O |

tested on: not listed separately; test: Total AUClast in female C57BL/6J mouse plasma at 30 mg/kg, po measured after 24 hrs by UPLC-MS/MS analysis; type: ADME, organism-based; conditions: in vivo

| AUClast [h/ng/mL] | Structure (SMILES) |
| --- | --- |
| 109000 | Cc1nc(-c2onc(C)c2Nc2cncc(OC(C)C)n2)ccc1NC(=O)[C@H]1CCCC[C@@H]1C(=O)O |
| 315000 | Cc1nc(-c2onc(C)c2NC(=O)O[C@H](C)c2ccccc2)ccc1NC(=O)[C@H]1CCCC[C@@H]1C(=O)O |
